Test results from patent US20230020469A1, “USE OF CO-CRYSTALS OF TRAMADOL AND CELECOXIB FOR TREATING PAIN WHILE REDUCING THE ABUSE LIABILITY OF TRAMADOL” (ESTEVE PHARMACEUTICALS, S.A., priority 2019, published 2023).

Test: Single dose, open-label, 4-period crossover pharmacokinetic study; plasma tramadol and O-desmethyltramadol (M1) by HPLC-MS/MS; AQ=Cmax/Tmax
Conditions: for AQ for tramadol, comparison between treatments (in words): 4-way cross-over study, co-crystal vs Ultram® and vs Ultram® and Celebrex® taken concomitantly, Ultram® alone vs in combination; for O-desmethyltramadol AQ / Tramadol AQ: n 33, 2 × 100 mg co-crystal E-58425 tablets oral (Treatment 1), healthy subjects
Description: The study was a single center, randomized, single dose, open-label, 4-period, 4-sequence, crossover design in healthy male and female subjects.
The products were administered to 36 subjects. The wash-out between the periods for each subject was of 7 calendar days.
Separate blood samples were obtained for analysis of tramadol/M1 metabolite and for analysis of celecoxib (data not shown).
As soon as possible following blood collection, samples were centrifuged at a temperature of 4° C. nominal and at approximately 1500 g for 10 minutes. The plasma obtained was separated into duplicate polypropylene culture tubes. […] The samples were frozen in an upright position and retained in the clinic's freezers at a temperature of −20° C. nominal until sent on dry ice to the bioanalytical facility for assay.
The experimental human plasma samples were assayed for tramadol and M1 metabolite (0-desmethyltramadol) and also for celecoxib (data not shown) using two different validated bioanalytical methods by HPLC with MS/MS detection.
Sample pre-treatment involved the liquid-liquid extraction of tramadol and O-desmethyltramadol from 0.100 mL of human plasma; tramadol-D6 and O-desmethyltramadol-D6 were used as the internal standards (IS1 and IS2 respectively). The compounds were identified and quantified using Hilic HPLC with MS/MS detection over a theoretical concentration range of 2.00 ng/mL to 800.00 ng/mL for tramadol and 0.500 ng/mL to 200.00 ng/mL for O-desmethyltramadol. The concentrations were calculated using peak area ratios and the linearity of the calibration curve was determined using a weighted (1/x^2) linear (y=mx+b) least squares regression analysis for tramadol and for O-desmethyltramadol.
Pharmacokinetic parameters were estimated from the individual plasma concentration—time profile for each subject. The main absorption and disposition parameters were obtained using a non-compartmental approach with a log-linear terminal phase assumption. Maximum observed plasma concentration (Cmax) and the time of maximum observed plasma concentration (Tmax) were obtained directly from the experimental data. The trapezoidal rule was used to estimate the area under the curve (AUC; data not shown) and the terminal phase was estimated by maximizing the coefficient of determination estimated from the log-linear regression model (T1/2; data not shown). The abuse quotient was obtained using the following expression AQ=Cmax/Tmax.

COc1cccc(C2(O)CCCCC2CN(C)C)c1.Cc1ccc(-c2cc(C(F)(F)F)nn2-c2ccc(S(N)(=O)=O)cc2)cc1.Cl (racemic) [Co-crystal E-58425, co-crystal of (rac)-tramadol.HCl and celecoxib]
AQ for tramadol, comparison between treatments (in words): lower | AQ for tramadol, comparison between treatments (in words) (listed as co-crystal E-58425): better (lower) | O-desmethyltramadol AQ (Mean): 13.5 ng/(mL · h) | Tramadol AQ (Mean): 70.5 ng/(mL · h) | O-desmethyltramadol AQ (Median): 13.3 ng/(mL · h) | Tramadol AQ (Median): 70.7 ng/(mL · h)
